Assay results from US12303497B2, “Anti-androgens for the treatment of metastatic castration-sensitive prostate cancer” (priority 2019, dated 2025).

Test system: patients with metastatic castration-sensitive prostate cancer (mCSPC)
Details: Grade ≥3

CNC(=O)c1ccc(N2C(=S)N(c3cnc(C#N)c(C(F)(F)F)c3)C(=O)C23CCC3)cc1F [Apalutamide, 4-[7-(6-cyano-5-trifluoromethylpyridin-3-yl)-8-oxo-6-thioxo-5,7-diazaspiro[3.4]oct-5-yl]-2-fluoro-N-methylbenzamide]
AE leading to discontinuation: Lip swelling: 0 no. (%) | AE leading to discontinuation: Loss of consciousness: 0 no. (%) | AE leading to discontinuation: New cancer neoplasm: 5 (1.0) no. (%) | AE leading to discontinuation: Parkinson's disease: 1 (0.2) no. (%) | AE leading to discontinuation: Pleural effusion: 0 no. (%) | AE leading to discontinuation: Pulmonary edema: 0 no. (%) | AE leading to discontinuation: Pulmonary embolism: 1 (0.2) no. (%) | AE leading to discontinuation: Radiculopathy: 1 (0.2) no. (%) | AE leading to discontinuation: Rash (grouped term): 7 (1.3) no. (%) | AE leading to discontinuation: Respiratory failure: 0 no. (%) | AE leading to discontinuation: Seizure: 1 (0.2) no. (%) | AE leading to discontinuation: Subdural hemorrhage: 0 no. (%) | AE leading to discontinuation: Sudden cardiac death: 1 (0.2) no. (%) | AE leading to discontinuation: Sudden death: 0 no. (%) | AE leading to dose interruption: Anxiety: 0 no. (%) | AE leading to dose interruption: Arthralgia: 0 no. (%) | AE leading to dose interruption: Aspartate aminotransferase or alanine aminotransferase increased: 4 (0.8) no. (%) | AE leading to dose interruption: Asthenia: 3 (0.6) no. (%) | AE leading to dose interruption: Atrial fibrillation: 1 (0.2) no. (%) | AE leading to dose interruption: Bile duct obstruction: 0 no. (%) | AE leading to dose interruption: Blood alkaline phosphatase increased: 1 (0.2) no. (%) | AE leading to dose interruption: Cardiac amyloidosis: 0 no. (%) | AE leading to dose interruption: Cardiac disorder: 0 no. (%) | AE leading to dose interruption: Cardiac failure: 0 no. (%) | AE leading to dose interruption: Cardiac failure congestive: 1 (0.2) no. (%) | AE leading to dose interruption: Cerebrovascular accident: 1 (0.2) no. (%) | AE leading to dose interruption: Cheilitis: 0 no. (%) | AE leading to dose interruption: Chronic hepatitis: 0 no. (%) | AE leading to dose interruption: Chronic obstructive pulmonary disease: 2 (0.4) no. (%) | AE leading to dose interruption: Cognitive disorder: 1 (0.2) no. (%) | AE leading to dose interruption: Confusional state: 1 (0.2) no. (%) | AE leading to dose interruption: Constipation: 0 no. (%) | AE leading to dose interruption: Decreased appetite: 1 (0.2) no. (%) | AE leading to dose interruption: Dehydration: 0 no. (%) | AE leading to dose interruption: Depression: 0 no. (%) | AE leading to dose interruption: Diabetes mellitus: 1 (0.2) no. (%) | AE leading to dose interruption: Diarrhea: 0 no. (%) | AE leading to dose interruption: Diplegia: 0 no. (%) | AE leading to dose interruption: Dizziness: 0 no. (%) | AE leading to dose interruption: Dyspnea: 0 no. (%) | AE leading to dose interruption: Dysuria: 1 (0.2) no. (%) | AE leading to dose interruption: Edema: 0 no. (%) | AE leading to dose interruption: Eyelid edema: 0 no. (%) | AE leading to dose interruption: Facial edema: 0 no. (%) | AE leading to dose interruption: Fall: 1 (0.2) no. (%) | AE leading to dose interruption: Fatigue: 1 (0.2) no. (%) | AE leading to dose interruption: Febrile neutropenia: 1 (0.2) no. (%) | AE leading to dose interruption: Gamma-glutamyltransferase increased: 1 (0.2) no. (%) | AE leading to dose interruption: Gastric ulcer perforation: 1 (0.2) no. (%) | AE leading to dose interruption: Gastritis: 0 no. (%) | AE leading to dose interruption: General physical health deterioration: 1 (0.2) no. (%) | AE leading to dose interruption: Hallucination: 0 no. (%) | AE leading to dose interruption: Headache: 0 no. (%) | AE leading to dose interruption: Hematoma: 1 (0.2) no. (%) | AE leading to dose interruption: Hematuria: 2 (0.4) no. (%) | AE leading to dose interruption: Hemorrhage intracranial: 1 (0.2) no. (%) | AE leading to dose interruption: Hemorrhagic erosive gastritis: 1 (0.2) no. (%) | AE leading to dose interruption: Hepatic cirrhosis: 0 no. (%) | AE leading to dose interruption: Hepatic failure: 0 no. (%) | AE leading to dose interruption: Hip fracture: 1 (0.2) no. (%) | AE leading to dose interruption: Hot flush: 0 no. (%) | AE leading to dose interruption: Hydronephrosis: 0 no. (%) | AE leading to dose interruption: Hyperbilirubinemia: 1 (0.2) no. (%) | AE leading to dose interruption: Hypersensitivity: 0 no. (%) | AE leading to dose interruption: Hypertension: 6 (1.1) no. (%) | AE leading to dose interruption: Hypertriglyceridemia: 2 (0.4) no. (%) | AE leading to dose interruption: Hypokalemia: 1 (0.2) no. (%) | AE leading to dose interruption: Hyponatremia: 1 (0.2) no. (%) | AE leading to dose interruption: Infections: 4 (0.8) no. (%) | AE leading to dose interruption: Influenza-like illness: 0 no. (%) | AE leading to dose interruption: Insomnia: 0 no. (%) | AE leading to dose interruption: Ischemic cardiac events: 1 (0.2) no. (%) | AE leading to dose interruption: Large intestinal ulcer perforation: 1 (0.2) no. (%) | AE leading to dose interruption: Mental status changes: 0 no. (%) | AE leading to dose interruption: Muscular weakness: 0 no. (%) | AE leading to dose interruption: Musculoskeletal stiffness: 0 no. (%) | AE leading to dose interruption: Nausea: 0 no. (%) | AE leading to dose interruption: Neutropenia: 2 (0.4) no. (%) | AE leading to dose interruption: New cancer neoplasm: 1 (0.2) no. (%) | AE leading to dose interruption: Osteoarthritis: 0 no. (%) | AE leading to dose interruption: Osteoporosis: 0 no. (%) | AE leading to dose interruption: Pain (grouped term): 4 (0.8) no. (%) | AE leading to dose interruption: Pathological fracture: 0 no. (%) | AE leading to dose interruption: Peripheral edema: 0 no. (%) | AE leading to dose interruption: Peripheral swelling: 0 no. (%) | AE leading to dose interruption: Proctalgia: 0 no. (%) | AE leading to dose interruption: Pyrexia: 0 no. (%) | AE leading to dose interruption: Rash (grouped term): 20 (3.8) no. (%) | AE leading to dose interruption: Renal injury: 0 no. (%) | AE leading to dose interruption: Rheumatoid arthritis: 1 (0.2) no. (%) | AE leading to dose interruption: Seizure: 0 no. (%) | AE leading to dose interruption: Spinal cord compression: 1 (0.2) no. (%) | AE leading to dose interruption: Stomatitis: 0 no. (%) | AE leading to dose interruption: Subarachnoid hematoma: 1 (0.2) no. (%) | AE leading to dose interruption: Subarachnoid hemorrhage: 0 no. (%) | AE leading to dose interruption: Subdural hemorrhage: 0 no. (%)
